test system: edema in left hind paw; test: Carrageenin-induced hind paw edema in rats, test compound orally 1 hour before (Winter's method), anti-inflammatory activity; type: in vivo, Male Wistar rats; conditions: 6 mg/kg oral, one hour before carrageenin; paw volume 3 hours after carrageenin
Experimental: Anti-inflammatory activity was evaluated by the Winter's method [Journal of Pharmacology and Experimental Therapeutics, volume 141, page 369(1963)]. Male Wistar rats (group of 6 animals) were administered orally the test compounds (dose: 6 mg/kg) one hour before inducing the edema in left hind paw with 0.1 ml of a 1% carrageenin-saline suspension. Volumes of the hind paws were determined with a volume meter 3 hours after the injection of carrageenin. Indomethacin (Control 1) and 4-vinylphenylacetic acid (Control 2) were used as controls.

Going from CC(C(=O)O)c1ccc(C=C(Cl)Cl)cc1 (centres unmarked) [ST-37, Aluminum 2-[4-(2,2-dichlorovinyl)phenyl]propionate] to COc1ccc2c(c1)c(CC(=O)O)c(C)n2C(=O)c1ccc(Cl)cc1 [Control 1, Indomethacin], the Inhibition of edema falls from 63.1% to 59.3%.

Compound CC(C(=O)O)c1ccc(C=C(Cl)Cl)cc1 (centres unmarked) [ST-39, 2-Pyridylammonium 2-[4-(2,2-dichlorovinyl)phenyl]propionate] has an Inhibition of edema of 51.4%.
With CC(C(=O)O)c1ccc(C=C(Cl)Cl)cc1 (centres unmarked) [ST-1, 2-[4-(2,2-dichlorovinyl)phenyl]propionic acid] the Inhibition of edema was 66.1%.
CC(C(=O)O)c1ccc(C=C(Cl)Cl)cc1 (centres unmarked) [ST-36, calcium 2-[4-(2,2-dichlorovinyl)phenyl]propionate] gave an Inhibition of edema of 43.0%.
CC(C(=O)O)c1ccc(C=C(Cl)Cl)cc1 (centres unmarked) [ST-38, morpholinium 2-[4-(2,2-dichlorovinyl)phenyl]propionate] gave an Inhibition of edema of 35.6%.

same assay, conditions: Rattus norvegicus, po, 6 mg/kg oral, one hour before carrageenin; paw volume 3 hours after carrageenin; read-out: Inhibition of edema

Compared with CC(C)=CCOC(=O)C(C)c1ccc(C=C(Cl)Cl)cc1 (centres unmarked) [ST-41, prenyl 2-[4-(2,2-dichlorovinyl)phenyl]propionate], CC(C)=CCC/C(C)=C/COC(=O)C(C)c1ccc(C=C(Cl)Cl)cc1 (centres unmarked) [ST-58, geranyl 2-[4-(2,2-dichlorovinyl)phenyl]propionate] is lower in inhibition at 6 mg/kg: 48.8% for the first, 39% for the second.

Going from CC(C)=CCC/C(C)=C/COC(=O)C(C)c1ccc(C=C(Cl)Cl)c(Cl)c1 (centres unmarked) [ST-62, Geranyl 2-[3-chloro-4-(2,2-dichlorovinyl)phenyl]propionate] to CC(C)=CCOC(=O)C(C)c1ccc(C=C(Cl)Cl)c(F)c1 (centres unmarked) [ST-50, Prenyl 2-[4-(2,2-dichlorovinyl)-3-fluorophenyl]propionate], the inhibition at 6 mg/kg rises from 43.2% to 61.4%.

Going from CC(C(=O)OCCO)c1ccc(C=C(Cl)Cl)cc1 (centres unmarked) [ST-59, 2-Hydroxyethyl 2-[4-(2,2-dichlorovinyl)phenyl]propionate] to CCOC(=O)C(C)c1ccc(C=C(Cl)Cl)cc1 (centres unmarked) [ST-5, ethyl 2-[4-(2,2-dichlorovinyl)phenyl]propionate], the inhibition at 6 mg/kg falls from 57.3% to 46.5%.

Compared with CC(C)CCOC(=O)C(C)c1ccc(C=C(Cl)Cl)cc1 (centres unmarked) [ST-42, Isopentyl 2-[4-(2,2-dichlorovinyl)phenyl]propionate], COCOC(=O)C(C)c1ccc(C=C(Cl)Cl)cc1 (centres unmarked) [ST-43, Methoxymethyl 2-[4-(2,2-dichlorovinyl)phenyl]propionate] is lower in inhibition at 6 mg/kg: 60.4% for the first, 37.1% for the second.

First: CC(C(=O)Nc1ccc(Cl)cc1)c1ccc(C=C(Cl)Cl)cc1 (centres unmarked) [ST-16, N-(4-Chlorophenyl)-2-[4-(2,2-dichlorovinyl)phenyl]propionamide]
Second: CC(C(=O)Nc1ccc(F)cc1)c1ccc(C=C(Cl)Cl)cc1 (centres unmarked) [ST-17, N-(4-Fluorophenyl)-2-[4-(2,2-dichlorovinyl)phenyl]propionamide]
The inhibition at 6 mg/kg of the first is higher: 43.1% for the first, 40% for the second.

Compared with CC(C(=O)O)c1cccc(C=C(Cl)Cl)c1 (centres unmarked) [ST-4, 2-[3-(2,2-Dichlorovinyl)phenyl]propionic acid], CC(C(=O)O)c1ccc(C=C(Cl)Cl)c(F)c1 (centres unmarked) [ST-8, 2-[4-(2,2-dichlorovinyl)-3-fluorophenyl]propionic acid] is higher in inhibition at 6 mg/kg: 32% for the first, 64.8% for the second.

First: O=C(O)Cc1ccc(C=C(Cl)Cl)cc1 [ST-2, 4-(2,2-Dichlorovinyl)phenylacetic acid]
Second: O=C(O)Cc1cccc(C=C(Cl)Cl)c1 [ST-3, 3-(2,2-Dichlorovinyl)phenylacetic acid]
The inhibition at 6 mg/kg of the first is higher: 63.9% for the first, 31.9% for the second.

First: CC(C(=O)OC1CCCCC1)c1ccc(C=C(Cl)Cl)cc1 (centres unmarked) [ST-61, Cyclohexyl 2-[4-(2,2-dichlorovinyl)phenyl]propionate]
Second: CC(C(N)=O)c1ccc(C=C(Cl)Cl)cc1 (centres unmarked) [ST-11, 2-[4-(2,2-dichlorovinyl)phenyl]propionamide]
The inhibition at 6 mg/kg of the first is higher: 43.7% for the first, 26.5% for the second.

Going from CC(C(=O)NCC(=O)O)c1ccc(C=C(Cl)Cl)cc1 (centres unmarked) [ST-24, N-{2-[4-(2,2-Dichlorovinyl)phenyl]propionyl}glycine] to CCOC(=O)CNC(=O)C(C)c1ccc(C=C(Cl)Cl)cc1 (centres unmarked) [ST-23, N-{2-[4-(2,2-Dichlorovinyl)phenyl]propionyl}glycine ethyl ester], the inhibition at 6 mg/kg rises from 30% to 35.5%.

First: CCC(=O)OCOC(=O)C(C)c1ccc(C=C(Cl)Cl)cc1 (centres unmarked) [ST-46, Propionyloxymethyl 2-[4-(2,2-dichlorovinyl)phenyl]propionate]
Second: CCC(=O)OC(C)OC(=O)C(C)c1ccc(C=C(Cl)Cl)cc1 (centres unmarked) [ST-47, 1-(Propionyloxy)ethyl 2-[4-(2,2-dichlorovinyl)phenyl]propionate]
The inhibition at 6 mg/kg of the first is lower: 32.2% for the first, 49.9% for the second.

Compared with CC(C(=O)OCc1ccccn1)c1ccc(C=C(Cl)Cl)cc1 (centres unmarked) [ST-44, 2-Pyridylmethyl 2-[4-(2,2-dichlorovinyl)phenyl]propionate], CC(C(=O)Nc1ccccn1)c1ccc(C=C(Cl)Cl)cc1 (centres unmarked) [ST-22, N-(2-Pyridyl)-2-[4-(2,2-dichlorovinyl)phenyl]propionamide] is lower in inhibition at 6 mg/kg: 59.8% for the first, 35.5% for the second.

First: CC(C(=O)O)c1ccc(C=C(F)F)cc1 (centres unmarked) [ST-7, 2-[4-(2,2-difluorovinyl)phenyl]propionic acid]
Second: CC(C(=O)NO)c1ccc(C=C(Cl)Cl)cc1 (centres unmarked) [ST-34, 2-[4-(2,2-dichlorovinyl)phenyl]propionylhydroxamic acid]
The inhibition at 6 mg/kg of the first is higher: 48.4% for the first, 32.5% for the second.

Compared with CC(=O)OC(C)OC(=O)C(C)c1ccc(C=C(Cl)Cl)cc1 (centres unmarked) [ST-45, 1-(Acetoxy)ethyl 2-[4-(2,2-dichlorovinyl)phenyl]propionate], CCNC(=O)C(C)c1ccc(C=C(Cl)Cl)cc1 (centres unmarked) [ST-25, N-Ethyl-2-[4-(2,2-dichlorovinyl)phenyl]propionamide] is lower in inhibition at 6 mg/kg: 44.8% for the first, 37.1% for the second.

First: CC(C)=CCCC(C)=CCCC(C)=CCOC(=O)C(C)c1ccc(C=C(Cl)Cl)cc1 (centres unmarked) [ST-60, Farnesyl 2-[4-(2,2-dichlorovinyl)phenyl]propionate]
Second: CC(CO)c1ccc(C=C(Cl)Cl)cc1 (centres unmarked) [ST-10, 2-[4-(2,2-dichlorovinyl)phenyl]propanol]
The inhibition at 6 mg/kg of the first is lower: 50.8% for the first, 62.4% for the second.

Compared with CC(C(=O)OC1OC(=O)c2ccccc21)c1ccc(C=C(Cl)Cl)cc1 (centres unmarked) [ST-49, 2-Phthalidyl 2-[4-(2,2-dichlorovinyl)phenyl]propionate], Cc1ccc(NC(=O)C(C)c2ccc(C=C(Cl)Cl)cc2)cc1 (centres unmarked) [ST-14, N-(4-Methylphenyl)-2-[4-(2,2-dichlorovinyl)phenyl]propionamide] is lower in inhibition at 6 mg/kg: 53.3% for the first, 33.6% for the second.

Going from CC(C(=O)Nc1ccc(C(=O)O)cc1)c1ccc(C=C(Cl)Cl)cc1 (centres unmarked) [ST-20, 4-{2-[4-(2,2-Dichlorovinyl)phenyl]propionylamino}benzoic acid] to CC(C(=O)O)c1ccc(C=C(Cl)Cl)c(Cl)c1 (centres unmarked) [ST-9, 2-[3-Chloro-4-(2,2-dichlorovinyl)phenyl]propionic acid], the inhibition at 6 mg/kg rises from 47% to 58%.

First: CCOC(=O)C(C)c1ccc(C=C(Cl)Cl)c(F)c1 (centres unmarked) [ST-55, ethyl 2-[4-(2,2-dichlorovinyl)-3-fluorophenyl]propionate]
Second: CCOC(=O)C(C)c1ccc(C=C(Cl)Cl)c(Cl)c1 (centres unmarked) [ST-56, Ethyl 2-[3-chloro-4-(2,2-dichlorovinyl)phenyl]propionate]
The inhibition at 6 mg/kg of the first is lower: 38.2% for the first, 39.4% for the second.

Going from CCCCCCCCCCCCCCCC(=O)OC(C)OC(=O)C(C)c1ccc(C=C(Cl)Cl)cc1 (centres unmarked) [ST-48, 1-(Palmitoyloxy)ethyl 2-[4-(2,2-dichlorovinyl)phenyl]propionate] to C=Cc1ccc(CC(=O)O)cc1 [Control 2, 4-vinylphenylacetic acid], the inhibition at 6 mg/kg falls from 32.7% to 15.7%.

same assay, conditions: Rattus norvegicus, po, read-out: Inhibition of edema, 6 mg/kg oral, one hour before carrageenin; paw volume 3 hours after carrageenin

First: CC(C(=O)O)c1ccc(C=C(Cl)Cl)cc1 (centres unmarked) [ST-35, sodium 2-[4-(2,2-dichlorovinyl)phenyl]propionate]
Second: COc1ccc2c(c1)c(CC(=O)O)c(C)n2C(=O)c1ccc(Cl)cc1 [Control 1, Indomethacin]
The inhibition at 6 mg/kg of the first is lower: 46% for the first, 68.2% for the second.

test system: edema in left hind paw; test: Duration of inhibition of carrageenin-induced hind paw edema, test compound orally 1, 24 or 48 hours before inducing the edema; type: in vivo, Male Wistar rats; conditions: Rattus norvegicus, po, read-out: Inhibition of edema, 1 hr
Experimental: Anti-inflammatory activity was evaluated by the Winter's method [Journal of Pharmacology and Experimental Therapeutics, volume 141, page 369(1963)]. […] Volumes of the hind paws were determined with a volume meter 3 hours after the injection of carrageenin. Indomethacin (Control 1) and 4-vinylphenylacetic acid (Control 2) were used as controls.
Following a procedure similar to that of Test example 1, the test compounds were administered orally to the rats 1, 24 or 48 hours before inducing the edema, and there was obtained a result shown in Table 2.

COc1ccc2c(c1)c(CC(=O)O)c(C)n2C(=O)c1ccc(Cl)cc1 [Control 1, Indomethacin] gave an inhibition at 3 mg/kg of 30.4%.

same assay, conditions: Rattus norvegicus, po, read-out: Inhibition of edema, 24 hrs

With COc1ccc2c(c1)c(CC(=O)O)c(C)n2C(=O)c1ccc(Cl)cc1 [Control 1, Indomethacin] the inhibition at 3 mg/kg was 8.1%.

same assay, conditions: Rattus norvegicus, po, read-out: Inhibition of edema, 48 hrs

In the case of COc1ccc2c(c1)c(CC(=O)O)c(C)n2C(=O)c1ccc(Cl)cc1 [Control 1, Indomethacin], the inhibition at 3 mg/kg is reported as 0.8%.

same assay, conditions: Rattus norvegicus; dose 1.5 mg/kg oral, 1 hr before inducing edema; read-out: Inhibition of edema, 1 hr

First: CN1C(C(=O)Nc2ccccn2)=C(O)c2ccccc2S1(=O)=O [Control 3, piroxicam]
Second: CC(C(=O)O)c1ccc(C=C(Cl)Cl)cc1 (centres unmarked) [ST-1, 2-[4-(2,2-dichlorovinyl)phenyl]propionic acid]
The inhibition at 1.5 mg/kg of the first is higher: 48.6% for the first, 42.6% for the second.

same assay, conditions: Rattus norvegicus; dose 1.5 mg/kg oral, 24 hrs before inducing edema; read-out: Inhibition of edema, 24 hrs

First: CN1C(C(=O)Nc2ccccn2)=C(O)c2ccccc2S1(=O)=O [Control 3, piroxicam]
Second: CC(C(=O)O)c1ccc(C=C(Cl)Cl)cc1 (centres unmarked) [ST-1, 2-[4-(2,2-dichlorovinyl)phenyl]propionic acid]
The inhibition at 1.5 mg/kg of the first is lower: 13.3% for the first, 31.1% for the second.

same assay, conditions: Rattus norvegicus; dose 1.5 mg/kg oral, 48 hrs before inducing edema; read-out: Inhibition of edema, 48 hrs

Going from CN1C(C(=O)Nc2ccccn2)=C(O)c2ccccc2S1(=O)=O [Control 3, piroxicam] to CC(C(=O)O)c1ccc(C=C(Cl)Cl)cc1 (centres unmarked) [ST-1, 2-[4-(2,2-dichlorovinyl)phenyl]propionic acid], the inhibition at 1.5 mg/kg rises from 2.1% to 25.3%.

same assay, conditions: Rattus norvegicus; dose 6 mg/kg oral, 1 hr before inducing edema; read-out: Inhibition of edema, 1 hr

Compound CC(C)=Cc1ccc(C(C)C(=O)O)cc1 (centres unmarked) [Control 4, 2-[4-(2,2-dimethylvinyl)phenyl]propionic acid] has an inhibition at 6 mg/kg of 59.3%.

same assay, conditions: Rattus norvegicus; dose 6 mg/kg oral, 24 hrs before inducing edema; read-out: Inhibition of edema, 24 hrs

In the case of CC(C)=Cc1ccc(C(C)C(=O)O)cc1 (centres unmarked) [Control 4, 2-[4-(2,2-dimethylvinyl)phenyl]propionic acid], the inhibition at 6 mg/kg is reported as -8.5%.

same assay, conditions: Rattus norvegicus; dose 6 mg/kg oral, 48 hrs before inducing edema; read-out: Inhibition of edema, 48 hrs

In the case of CC(C)=Cc1ccc(C(C)C(=O)O)cc1 (centres unmarked) [Control 4, 2-[4-(2,2-dimethylvinyl)phenyl]propionic acid], the inhibition at 6 mg/kg is reported as 3.7%.

same assay, conditions: Rattus norvegicus; dose 30 mg/kg oral, 1 hr before inducing edema; read-out: Inhibition of edema, 1 hr

C=Cc1ccc(CC(=O)O)cc1 [Control 2, 4-vinylphenylacetic acid] gave an inhibition at 30 mg/kg of 40.2%.

same assay, conditions: Rattus norvegicus; dose 30 mg/kg oral, 24 hrs before inducing edema; read-out: Inhibition of edema, 24 hrs

C=Cc1ccc(CC(=O)O)cc1 [Control 2, 4-vinylphenylacetic acid] was tested, and the inhibition at 30 mg/kg was 1.3%.

same assay, conditions: Rattus norvegicus; dose 30 mg/kg oral, 48 hrs before inducing edema; read-out: Inhibition of edema, 48 hrs

In the case of C=Cc1ccc(CC(=O)O)cc1 [Control 2, 4-vinylphenylacetic acid], the inhibition at 30 mg/kg is reported as -3.5%.

From patent publication US4557871A, “Novel styrene derivatives of the general formula” (Taisho Pharmaceutical Co., Ltd., priority 1983, dated 1985)
